Assay results: patent US20250049776A1, “AUTOPHAGY INDUCING COMPOUNDS AND USES THEREOF, IN PARTICULAR FOR A SYSTEMIC TREATMENT OF DISEASES AND CONDITIONS” (Samsara Therapeutics Inc., priority 2021, published 2025)

How the values were obtained:
[1] = test system: dopaminergic Tyrosine hydroxylase (TH)-positive neurons injured with MPTP; test: Cellular model of Parkinson's disease (MPTP/MPP+ injury of primary mesencephalic neurons); assay type: cell-based, Rat; settings: concentrations of 10 μM
Excerpt: This model (run by Neuro-Sys SAS, France) is based on a primary culture of dopaminergic Tyrosine hydroxylase (TH)-positive neurons injured with the dopaminergic neurons-specific toxin (DA-toxin) 1-methyl-4-phenyl-1,2,3,6 tetrahydropyridine (MPTP, a prodrug of MPP*) (Dauer and Przedborski, 2003). Any substances reducing DA-toxin neurotoxicity may be useful as a new therapeutic agent for the treatment or prevention of PD.
Primary culture of mesencephalic neurons: Rat dopaminergic neurons were cultured as described by Visanji et al., 2008 and Callizot et al., 2019. Briefly, pregnant female rat (Wistar) of 15 days of gestation were killed using a deep anesthesia with CO2 chamber and a cervical dislocation. The midbrains obtained from 15-day-old rat embryos (Janvier, France) were dissected under a microscope. The embryonic midbrains will be removed and placed in ice-cold medium of Leibovitz (L15) containing 2% of Penicillin-Streptomycin (PS) and 1% of bovine serum albumin (BSA). The ventral portion of the mesencephalic flexure, a region of the developing brain rich in dopaminergic neurons, was used for the cell preparations.
The midbrains were dissociated by trypsinisation for 20 min at 37° C. (solution at a final concentration of 0.05% trypsin and 0.02% EDTA). The reaction was stopped by the addition of Dulbecco's modified Eagle's medium (DMEM) containing DNAase I grade II (0.5 mg/mL) and 10% of foetal calf serum (FCS). Cells were then mechanically dissociated by 3 passages through a 10 ml pipette. Cells were then centrifuged at 180×g for 10 min at +4° C. on a layer of BSA (3.5%) in L15 medium. The supernatant was discarded and the cell pellets re-suspended in a defined culture medium consisting of Neurobasal supplemented with B27 (2%), L-glutamine (2 mM) and 2% of PS solution and 10 ng/mL of Brain-derived neurotrophic factor (BDNF) and 1 ng/mL of Glial-Derived Neurotrophic Factor (GDNF). Viable cells were counted in a Neubauer cytometer using the trypan blue exclusion test. The cells were seeded at a density of 40,000 cells/well in 96 well-plates (pre-coated with poly-L-lysine) and maintained in a humidified incubator at 37° C. in 5% CO2/95% air atmosphere. Half of the medium was changed every 2 days with fresh medium. The wells of first and last lines and columns […] (to avoid any edge effect) and were be filled with sterile water.
Test compounds and MPTP: • i) Pre-incubation. On day 6 of culture, the test compounds were dissolved in PBS or DMSO and incubated for 1 hour before the MPTP exposure. • ii) Injury. One hour after the application of test compound, MPTP was added to a final concentration of 4 μM, diluted in control medium still in presence of compounds/inhibitors for 48h. Test compounds were tested on one culture in 96-well plate (n=6 culture wells per condition).
Immunostaining: TH and α-Synuclein. 48 Hours after intoxication, the cell culture supernatant was removed, and the cells were fixed by a solution of 4% paraformaldehyde in PBS, pH=7.3 for 20 min at room temperature. The cells were washed twice in PBS, and then permeabilized. Non-specific sites were blocked with a solution of PBS containing 0.1% of saponin and 1% FCS for 15 min at room temperature. The cultures were incubated with: (a) monoclonal anti-Tyrosine Hydroxylase (TH) antibody produced in mouse at dilution of 1/10000 in PBS containing 1% FCS, 0.1% saponin, for 2 hours at room temperature, and (b) polyclonal anti-alpha synuclein (α-synuclein) antibody produced in rabbit at dilution of 1/200 in PBS containing 1% FCS, 0.1% saponin, for 2 h at room temperature.
Automatic computer analysis. For each condition, 20 pictures (representing the whole well area) were automatically taken using ImageXpress® (Molecular Devices) at 10× magnification (20 pictures, for TH and α-synuclein into TH neurons) using the same acquisition parameters. From images, analyses was directly and automatically performed by MetaXpress® (Molecular Devices).

[2] = test system: Differentiated hepatocyte GSD1A disease model cells; test: iPSC model of glycogen storage disease type 1A: glycogen and triglyceride quantification; assay type: cell-based, human; settings: hepatocytes differentiated from GSD1A patient derived iPSCs, 10 μM
Procedure: Timetable for Treatment of Cells with the Compounds: • Day 1. Differentiated hepatocyte GSD1A disease model cells (DefiniGEN Ltd) were cultured in a collagen I coated 48-well plate. Empty wells were filled with PBS. • Day 9. The racemic mixture of compounds 170 and 171 (as a solution in DMSO) was added to the disease model cells • Day 11. Media for disease model cells was replaced with fresh media with compound. • Day 12. Cells were washed once in PBS and once in HBSS and 30 μL of NP40 Lysis buffer supplied with Phosphatase and Protease inhibitor cocktail was added to each well. Plate was immediately placed on dry ice. […]
Protein quantification: An aliquot of the lysates was used for protein quantification using BCA.
Glycogen quantification: An aliquot of the lysates was boiled at 96° C. for 5 minutes. […] Supernatant was used for Glycogen quantification using MAK016 kit (Merck), following manufacturer's instructions. […] 8 μL of Hydrolysis buffer from the kit was added to one aliquot from each sample (-HE; to quantify free glucose content of the lysate). The other sample was supplied with 8 μL of Hydrolysis buffer supplied with Hydrolysis Enzyme (+HE; to quantify free glucose+glycogen content of the lysate). After 30 minutes of incubation at room temperature, 10 μL of probe mix was added to each well and the absorbance at 570 nm was measured after 30 minutes incubation at room temperature. […]

[3] = test system: adult human dermal fibroblast cells (HDFa cells); test: Acidic vesicle formation in adult human dermal fibroblast cells; assay type: cell-based; settings: concentration of 10 μM
Excerpt: This is evidence for significant stimulation of autophagy by this compound under these conditions.

[4] = test system: Human osteosarcoma U20S cells; test: Assay to measure lysosome and autolysosome formation (acidic vesicle formation, LysoView/LysoTracker staining); assay type: cell-based; settings: U20S cells
Method in brief: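 U2OS cells treated with compounds in DMSO for 24 h, then stained 45 min at 37 °C with 1× LysoView 633 or 50 nM LysoTracker Deep Red, with Hoechst nuclear counterstain. Live-cell fluorescence imaging at 37 °C; acidic vesicle formation judged against DMSO-treated control.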

ZIKV = test: Infectivity assay ZIKV in SH-SY5Y cells; assay type: cell-based; settings: Zika virus, MOI 5, 48 h, E staining
Procedure: (§1) Cells were seeded in 96 well plates and the following day pre-treated with a 3-fold serial dilution of compound starting from 20 μM, in 100 μL of assay media. 24 hours later, cells were infected (without removing the media) with ZIKV or HCMV at a multiplicity of infection (MOI) compatible with multiple rounds of virus replication. DMSO-treated infected and uninfected cells were included as positive and negative controls. [table]

[5] = test system: Mutant PNPLA3-Expressing HepG2 Cells (GFP-PNPLA3 (1148>M)); test: Cellular model of NAFLD: gel assay for mutant PNPLA3-expressing HepG2 cells; assay type: cell-based; settings: HepG2 cells transfected with GFP-PNPLA3 (1148>M), 24 hours
Procedure: Method: HepG2 cells were transfected with GFP-PNPLA3 (1148>M) overexpression plasmid using Lipofectamine LTX in DMEM media supplied with 1% Oleic Acid-BSA and were left overnight. The next day, cells were trypsinated and were seeded in a 96-well plate in DMEM media supplied with 1% Oleic Acid-BSA. After 7 hours, media was changed to standard DMEM supplied with the compound of interest. After 24 hours, cells were washed once with PBS and were lysed in RIPA buffer. Lysates were collected, centrifuged and the supernatants were mixed with Laemmli buffer (without DTT or boiling) and were loaded on a 4-20% SDS-PAGE gel. After electrophoresis, gels were directly imaged in the FITC channel to visualise the GFP signal.

SH-SY5Y = test: Cytotoxicity assay (MTT) parallel to ZIKV infectivity assay; assay type: cell-based; design: key: A “—” symbol indicates no inhibition; settings: SH-SY5Y cells, 48 h
Procedure: (§2) In parallel to the infectivity assays, in order to determine the cytotoxic properties of the compound, cells were seeded in 96 well plates and the following day pre-treated with the same serial dilutions of compound in 100 μl of assay media. The compound was left on the cells for the duration of the infectivity assays, after which a metabolic assay (MTT assay) was used to determine cell viability compared to a DMSO-treated control.

[6] = Cytotoxicity assay (MTT) parallel to HCMV infectivity assay; assay type: cell-based; settings: human, HFF cells, read-out: HCMV TC50
Procedure: as §2

HCMV = test: Infectivity assay HCMV in HFF cells; assay type: cell-based, Human Cytomegalovirus (HCMV); settings: Human betaherpesvirus 5, 360 h, MOI 1, 15 days, gB staining
Procedure: as §1

SMILES | increase in the length of the neurite network of dopaminergic TH positive neurons compared to the MPP+ injury alone ([1]; 1 μM and 500 nM) [%] | increase in the number of dopaminergic TH positive neurons compared to MPP+ injury alone ([1]; 1 μM and 500 nM) [%] | decrease in α-syn area per dopaminergic TH positive neuron compared to MPP+ injury alone ([1]; 1 μM, 500 nM and 100 nM) [%] | reduction of cellular glycogen compared with the DMSO-only control [2] | reduction of cellular triglycerides compared with the DMSO-only control [2] [%] | acidic vesicle formation relative to a DMSO-treated control [3] | acidic vesicle formation relative to a DMSO-treated control ([4]; concentration of 10 μM, 24 hours) | increase in acidic vesicle formation ([4]; relative to DMSO-treated control (10 μM)) | IC50 (ZIKV) [µM] | fold increase in GFP breakdown Bafilomycin-sensitive-product signal versus an inactive control [5] [fold] | ZIKV TC50 (SH-SY5Y) | CC50 at 15 days [6] [µM] | IC50 (HCMV) [µM]
NC[C@H]1CCCN1C(=O)c1csc(-c2cnn(-c3ccccc3)c2)n1 [Compound 156, 1-[(2R)-1-[2-(1-phenyl-1H-pyrazol-4-yl)-1,3-thiazole-4-carbonyl]pyrrolidin-2-yl]methanamine] | > 39 | > 18 | > 13 |  |  |  |  |  |  |  |  |  | 
CCCN(C(=O)c1csc(-c2cnn(-c3ccccc3)c2)n1)C1CCNC1 (racemic) [racemic mixture of compounds 170 and 171] |  |  |  | over 75% | > 20 | significantly greater acidic vesicle formation | clearly increased | at least 25% | < 15 | 3.7 | — | > 75 | < 10
